Results from PubChem BioAssay AID1205 (EPA DSSTox, 2008).
Active and inactive are the calls of the source.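 How the source made its calls: active means tumour findings in long-term animal cancer tests in more than one sex, species or organ; inactive means no tumour finding and more than one negative test.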

Test: DSSTox (CPDBAS) Carcinogenic Potency Database Summary MultiCellCall Results
Conditions: animal carcinogenicity bioassays, multi-cell call summary
Excerpt: The Carcinogenic Potency Database (CPDB) is a unique and widely used international resource of the results of over 6500 chronic, long-term animal cancer tests on over 1500 chemical substances. The CPDB provides easy access to the bioassay literature, with qualitative and quantitative analyses of both positive and negative experiments that have been published over the past 50 years in the general literature and by the National Cancer Institute/National Toxicology Program. The CPDB standardizes the diverse literature of cancer bioassays that vary widely in protocol, histopathological examination and nomenclature, and in the published author's choices of what information to provide in their papers. Results are reported in the CPDB for tests in rats, mice, hamsters, dogs, and nonhuman primates, and are based on the most positive result among all experiments for each sex-species. The DSSTox CPDBAS (all species) file incorporates data from the CPDB Summary Tables for the full list of over 1500 chemical substances tested in at least one species. A summary MultiCellCall, based on experimental bioassay results of one or more species, is provided in the DSSTox CPDBAS file (see Source URL) for more than 1150 chemical substances.
Associated TD50 values and tumor site details for the relevant species/sex experiment supporting the overall CPDBAS MultiSiteCall are provided in the full DSSTox CPDBAS file (see Comment) and the corresponding CPDBAS Species Bioassay in PubChem. ActivityScore is computed as follows: multispecies=50, multisex=30, multisite=20, with combination scores computed as sums of these values, e.g. multispecies+multisite=70.
In the case of C=COC(C)=O, the outcome is reported as “active; multisite active; multisex active; multispecies active”.
With CC(=O)Nc1ccc2c(c1)Cc1cc(NC(C)=O)ccc1-2 the outcome was “inactive; multispecies inactive”.
In the case of S=c1nc[nH]c2nc[nH]c12, the outcome is reported as “inactive; multisex inactive”.
With CCc1nc(N)nc(N)c1-c1ccc(Cl)cc1 the outcome was “inactive; multisex inactive; multispecies inactive”.
In the case of CC1(C)[C@@H](OC2O[C@H](C(=O)O)[C@@H](O)[C@H](O)[C@H]2O[C@H]2O[C@H](C(=O)O)[C@@H](O)[C@H](O)[C@H]2O)CC[C@]2(C)[C@H]3C(=O)C=C4[C@@H]5C[C@@](C)(C(=O)O)CC[C@]5(C)CC[C@@]4(C)[C@]3(C)CC[C@@H]12 (stereo partly drawn), the outcome is reported as “inactive; multisex inactive”.
With ClC1=C(Cl)C(Cl)(Cl)C(Cl)=C1Cl the outcome was “inactive; multisex inactive; multispecies inactive”.
In the case of OC[C@@H](O)[C@@H](O)[C@H](O)[C@H](O)CO, the outcome is reported as “inactive; multisex inactive; multispecies inactive”.
For CC(=O)NNC(C)=O, the outcome was “inactive; multisex inactive”.
With NC(=S)NNC(N)=S the outcome was “inactive; multisex inactive; multispecies inactive”.
In the case of NCCNc1cccc2ccccc12, the outcome is reported as “inactive; multisex inactive; multispecies inactive”.
In the case of CCC[CH2][Sn]([CH2]CCC)([CH2]CCC)[O][Sn]([CH2]CCC)([CH2]CCC)[CH2]CCC, the outcome is reported as “inactive; multisex inactive”.
For C=CCNNCC=C, the outcome was “active; multisex active”.
With CCCNC(=O)NS(=O)(=O)c1ccc(Cl)cc1 the outcome was “inactive; multisex inactive; multispecies inactive”.
In the case of CCCOC(=O)c1cc(O)c(O)c(O)c1, the outcome is reported as “inactive; multisex inactive; multispecies inactive”.
With ClC(Cl)C(Cl)Cl the outcome was “active; multisex active”.
For CNCCc1ccc(OC(=O)C(C)C)c(OC(=O)C(C)C)c1, the outcome was “inactive; multisex inactive”.
With CC1CO1 (stereo not drawn) the outcome was “active; multisite active; multisex active; multispecies active”.
In the case of O=NN1CCCC1c1cccnc1 (stereo not drawn), the outcome is reported as “active; multisite active; multisex active; multispecies active”.
In the case of CC(=O)Nc1ccc(CC(=O)O)cc1, the outcome is reported as “inactive; multisex inactive; multispecies inactive”.
For c1ccc(-c2ccccc2)cc1, the outcome was “inactive; multisex inactive”.
With O=C(O)[C@@H]1[C@H](C(=O)O)[C@@]2(Cl)C(Cl)=C(Cl)[C@]1(Cl)C2(Cl)Cl the outcome was “active; multisite active; multisex active; multispecies active”.
For NC(=O)NC1NC(=O)NC1=O (stereo not drawn), the outcome was “inactive; multisex inactive”.
For NNC(=O)c1cccnc1, the outcome was “active; multisex active”.
With N#CC(c1ccccc1)c1ccccc1 the outcome was “inactive; multisex inactive”.
For O=C(Nc1ccc([N+](=O)[O-])cc1Cl)c1cc(Cl)ccc1O, the outcome was “inactive; multisex inactive; multispecies inactive”.
With CCCCOC(=O)COc1ccc(Cl)cc1Cl the outcome was “inactive; multisex inactive”.
For CCc1ccccc1, the outcome was “active; multisite active; multisex active; multispecies active”.
For CCCN(CCC)N=O, the outcome was “active; multisite active; multispecies active”.
With COc1cccc2c1cc([N+](=O)[O-])c1c(C(=O)O)cc3c(c12)OCO3 the outcome was “active; multisex active”.
For OCC(CO)N[C@H]1C[C@](O)(CO)[C@@H](O)[C@H](O)[C@H]1O, the outcome was “inactive; multisex inactive; multispecies inactive”.
With CCCCCCc1ccc(O)cc1O the outcome was “inactive; multisex inactive; multispecies inactive”.
With C[C@]12C/C(=C/O)C(=O)C[C@@H]1CC[C@@H]1[C@@H]2CC[C@@]2(C)[C@H]1CC[C@]2(C)O the outcome was “active; multisite active”.
For C[C@]12CC[C@@H]3c4ccc(OC(=O)Cc5ccc(N(CCCl)CCCl)cc5)cc4CC[C@H]3[C@@H]1CC[C@@H]2OC(=O)Cc1ccc(N(CCCl)CCCl)cc1, the outcome was “active; multisite active; multisex active”.
In the case of Cc1ccc(/C(=C\CN2CCCC2)c2ccccn2)cc1, the outcome is reported as “inactive; multisex inactive; multispecies inactive”.
In the case of O=C1c2ccccc2C(=O)N1SC(Cl)(Cl)Cl, the outcome is reported as “active; multisite active; multisex active”.
With ClC1(Cl)C2(Cl)C3(Cl)C4(Cl)C(Cl)(Cl)C5(Cl)C3(Cl)C1(Cl)C5(Cl)C24Cl (stereo not drawn) the outcome was “active; multisite active; multisex active; multispecies active”.
In the case of O=[As]O, the outcome is reported as “inactive; multispecies inactive”.
In the case of CC(=O)OCc1ccccc1, the outcome is reported as “active; multisite active; multisex active”.
With Nc1ccc(-c2ccccc2)cc1 the outcome was “active; multisite active; multisex active”.
For COc1cc(/C=C/C(=O)CC(=O)/C=C/c2ccc(O)c(OC)c2)ccc1O, the outcome was “inactive; multisex inactive; multispecies inactive”.
With CCN(CC)N=O the outcome was “active; multisite active; multisex active; multispecies active”.
For CC(O)CN(N=O)C(=O)NCCCl (stereo not drawn), the outcome was “active; multisex active”.
For CC1(C)[C@H](C(=O)O[C@H](C#N)c2cccc(Oc3ccccc3)c2)[C@@H]1C=C(Br)Br, the outcome was “inactive; multisex inactive; multispecies inactive”.
